pKi: −log10 of the molar value.
Experiments:
[1] = molecular target: Beta-1 adrenergic receptor (Homo sapiens, UniProt P08588)
Description: Displacement of [3H]CGP12177 from human beta-1 adrenoceptor

[2] = molecular target: Beta-2 adrenergic receptor (Homo sapiens, UniProt P07550)
Description: Displacement of [3H]CGP12177 from human beta2 adrenoceptor

[3] = Agonist activity at beta 1 adrenoceptor in electrically-stimulated guinea pig left atrium at 1 uM; format: functional, Cavia porcellus, Cardiac atrium

Chain of Beta-1 adrenergic receptor (P08588 whole entry): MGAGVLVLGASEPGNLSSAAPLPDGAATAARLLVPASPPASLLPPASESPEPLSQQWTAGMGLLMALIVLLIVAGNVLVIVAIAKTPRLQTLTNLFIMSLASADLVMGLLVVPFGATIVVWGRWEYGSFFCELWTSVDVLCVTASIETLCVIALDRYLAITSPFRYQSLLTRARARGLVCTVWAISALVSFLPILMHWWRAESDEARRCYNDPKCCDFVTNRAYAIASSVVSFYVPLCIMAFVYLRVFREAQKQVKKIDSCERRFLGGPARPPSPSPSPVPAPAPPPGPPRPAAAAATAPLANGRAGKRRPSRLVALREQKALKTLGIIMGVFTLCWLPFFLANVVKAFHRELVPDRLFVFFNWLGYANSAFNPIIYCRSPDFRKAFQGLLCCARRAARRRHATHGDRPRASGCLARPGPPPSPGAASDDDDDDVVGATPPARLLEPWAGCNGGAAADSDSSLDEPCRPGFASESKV
Chain of Beta-2 adrenergic receptor (P07550 whole entry): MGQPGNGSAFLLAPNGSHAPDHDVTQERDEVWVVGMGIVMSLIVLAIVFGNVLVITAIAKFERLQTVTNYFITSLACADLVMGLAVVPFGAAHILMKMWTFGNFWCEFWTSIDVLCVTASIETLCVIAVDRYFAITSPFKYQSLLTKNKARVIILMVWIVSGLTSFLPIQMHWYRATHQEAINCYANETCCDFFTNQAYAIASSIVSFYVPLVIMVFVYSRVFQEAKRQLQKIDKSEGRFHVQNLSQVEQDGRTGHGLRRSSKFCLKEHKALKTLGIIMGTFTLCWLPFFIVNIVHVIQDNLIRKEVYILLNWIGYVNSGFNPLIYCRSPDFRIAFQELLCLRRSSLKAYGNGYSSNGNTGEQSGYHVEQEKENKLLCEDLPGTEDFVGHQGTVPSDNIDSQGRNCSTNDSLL

Row | SMILES | pKi [1] | pKi [2] | Activity [3] [%]
1 | CCC(CC)CNC[C@H](O)c1ccc(O)c2[nH]c(=O)sc12 | 6.77 | 7.61 | –
2 | C[C@@H](NC[C@H](O)c1ccc(O)c2[nH]c(=O)sc12)C1CCCCC1 | 8.82 | 9.00 | 69
3 | C[C@H](NC[C@H](O)c1ccc(O)c2[nH]c(=O)sc12)C1CCCCC1 | 7.41 | 7.60 | –
4 | CC(C)(C)CC(C)(C)NC[C@H](O)c1ccc(O)c2[nH]c(=O)sc12 | 8.04 | 8.72 | –
5 | O=c1[nH]c2c(O)ccc([C@@H](O)CNCC34CC5CC(CC(C5)C3)C4)c2s1 | 7.45 | 7.58 | –
6 | O=c1[nH]c2c(O)ccc([C@@H](O)CNCCc3ccccc3)c2s1 | 8.42 | 8.74 | –
7 | Cc1onc(-c2ccccc2)c1CNC[C@H](O)c1ccc(O)c2[nH]c(=O)sc12 | 6.04 | 7.70 | 19
8 | O=c1[nH]c2c(O)ccc([C@@H](O)CNCCCc3ccccc3)c2s1 | 8.70 | 8.92 | –
9 | CC(C)(Cc1ccccc1)NC[C@H](O)c1ccc(O)c2[nH]c(=O)sc12 | 8.74 | 9.40 | –
10 | O=c1[nH]c2c(O)ccc([C@@H](O)CN[C@@H]3CCCc4ccccc43)c2s1 | 6.95 | 8.03 | –
11 | O=c1[nH]c2c(O)ccc([C@@H](O)CN[C@H]3CCCc4ccccc43)c2s1 | 7.24 | 7.52 | –
12 | O=c1[nH]c2c(O)ccc([C@@H](O)CNCCCCc3ccccc3)c2s1 | 7.82 | 8.74 | –
13 | C[C@@H](NC[C@H](O)c1ccc(O)c2[nH]c(=O)sc12)c1ccc2ccccc2c1 | 8.85 | 8.57 | –
14 | C[C@H](NC[C@H](O)c1ccc(O)c2[nH]c(=O)sc12)c1ccc2ccccc2c1 | 7.47 | 7.31 | –
15 | O=c1[nH]c2c(O)ccc([C@@H](O)CNC3CCCCCC3)c2s1 | 7.10 | 7.93 | –
16 | O=c1[nH]c2c(O)ccc([C@@H](O)CN[C@@H]3CCCC[C@H]3OCc3ccccc3)c2s1 | 7.39 | 8.14 | 13
17 | O=c1[nH]c2c(O)ccc([C@@H](O)CN[C@H]3CCCC[C@@H]3OCc3ccccc3)c2s1 | 5.98 | 6.44 | –
18 | CC1(C)[C@@H]2CC[C@]1(C)[C@@H](NC[C@H](O)c1ccc(O)c3[nH]c(=O)sc13)C2 | 5.82 | 7.39 | –
19 | CC1(C)[C@@H]2CC[C@@]1(C)[C@@H](NC[C@H](O)c1ccc(O)c3[nH]c(=O)sc13)C2 | 6.35 | 8.42 | –
20 | O=c1[nH]c2c(O)ccc([C@@H](O)CNC3CCCCC3C3CCCCC3)c2s1 (some centres not stated) | 6.18 | 6.82 | –
21 | O=c1[nH]c2c(O)ccc([C@@H](O)CNC3CCN(CCN4CCCCCC4)CC3)c2s1 | 6.73 | 8.20 | –
22 | O=c1[nH]c2c(O)ccc([C@@H](O)CNCCOc3ccccc3)c2s1 | 7.75 | 8.36 | –
23 | CN(CCCNC[C@H](O)c1ccc(O)c2[nH]c(=O)sc12)c1ccccc1 | 8.08 | 9.52 | –
24 | O=C(NC1CCCCC1)[C@H](Cc1ccccc1)NC[C@H](O)c1ccc(O)c2[nH]c(=O)sc12 | < 6.00 | < 6.00 | –
25 | O=c1[nH]c2c(O)ccc([C@@H](O)CNCCSc3ccc(Cl)cc3)c2s1 | 8.77 | 8.52 | –
26 | CCCCN(CCCC)CCNC[C@H](O)c1ccc(O)c2[nH]c(=O)sc12 | 7.50 | 7.74 | –
27 | CNCC(O)c1ccc(O)c2nc(O)sc12 (configuration not stated) | 7.22 | 8.30 | –
